Laboratory results as given in US20250042857A1, “SOS1 Inhibitor With Pyrido-Fused Six-Membered Ring Structure” (HAIHE BIOPHARMA CO., LTD., priority 2021, published 2025).
Like-named read-outs stand apart in the source and are kept apart here.

Tests used:
p-ERK of PC-9 cells = test: p-ERK HTRF assay in PC-9 cells; type: cell-based; details: PC-9 lung cancer cells, 1 hour treatment, read-out: IC50, inhibitory activity on p-ERK of PC-9 cells
Procedure: IC50 Values of Compounds Determined by p-ERK HTRF Assay in PC-9 Cells
Experimental objective: an inhibitory effect of the test compounds on the phosphorylation of PC-9ERK of lung cancer cells at a cellular level was evaluated by detecting the phosphorylation of ERK.
• PRMI 1640 medium (Invitrogen-11875093) • 0.25% pancreatin (Invitrogen-25200056) • Phosphoric acid buffer salt solution (PBS, pH 7.4) (Invitrogen-10010023) • Double-antibody (PS) (Invitrogen-15140122) • Fetal bovine serum (FBS) (Gibco-10091148) • Trypan blue (Gibco-15250061) • 10-cm culture dish (Corning-430167) • 10-mL pipette (Costar-4488) • Pipettor (Sartorius-17009031) • 15-mL centrifuge tube (Corning-430052) • 50-mL centrifuge tube (Corning-430829) • Cryotube (Thermo-377267) • 1.5-mL EP tube (Axygen-MCT-150-C-S) • Cell incubator (Thermo-371) • Microscope (Olympus-CKX41) • Centrifuge (Flying Pigeon-TDL-80-2B) • Cell counter (Countstar-IC-1000) • Envision (Perkin Elmer) • Spark 10M (TECAN) • Phospho-ERK1/2 (Thr202/Tyr204) Experimental kit (Cisbio, Cat. No. 64AERPEG) • PC-9 cells: RPMI1640+10% FBS+1% PS
• 1) PBS, 0.25% pancreatin, and a cell culture medium were placed in a water-bath kettle at 37° C. for preheating; • 2) cells were observed under a microscope, a fusion degree was evaluated, and no bacterial and fungi pollution was confirmed; • 3) a culture solution was removed, the cells were washed with 5 mL of PBS and digested with 2 mL of the 0.25% trypsin, the digestion was terminated with 10 mL of the fresh cell culture medium, a culture dish was rinsed, and the cells were transferred to a 15-mL centrifuge tube; • 4) the collected cells were centrifuged at 1,000 rpm for 5 minutes; • 5) after the centrifugation, the supernatant was discarded, the cells were resuspended in 5 mL of the cell culture medium, 20 μL of the resuspended cells were aspirated, and the number and viability of viable cells were recorded; • 6) the cell culture medium was used and the cell density was adjusted (PC-9:10,000 cells/well, and 45 μL per well); • 7) in a 384-well plate, 45 μL of a cell suspension per well was transferred according to an experimental design figure; and • 8) the cells were incubated overnight at 37° C. and 5% CO2.
• 1) The compounds were diluted from the stock concentration to 10 mM with 100% DMSO (Trametinib was diluted to 1 mM), then 3-fold diluted into 10 points (5 μL of the diluted compounds with the concentration of 10 mM were transferred to 10 μL of the DMSO in an LDV plate), and centrifuged at 1,000 rpm/min for 1 minute; • 2) 5 μL of the diluted compounds of step 1) were transferred to an inter plate 1 containing 45 μL of the cell culture medium (the compounds were diluted from 1,000× to 100×); • 3) 5 μL of the diluted compounds of step 2) were transferred to an inter plate 2 containing 45 μL of the cell culture medium (the compounds were diluted from 100× to 10×); • 4) 5 μL of the compounds were pipetted from the inter plate 2 into a cell culture plate (the compounds were diluted from 10 folds to 1 fold), the final concentrations of the test compounds were 10,000 nM, 3333.33 nM, 1111.11 nM, 370.37 nM, 123.46 nM, 41.15 nM, 13.72 nM, 4.57 nM, 1.52 nM, and […], the solution was centrifuged at 1,000 rpm/min for 1 minute, and the final content of the DMSO was 0.1%; and • 5) the cells were treated in an incubator at 37° C. for 1 hour. […]

KRAS-G12C/SOS1 = KRAS-G12C/SOS1 (Homo sapiens (Human), UniProt Q07889); test: Detection of inhibitory effects of compounds on KRAS-G12C/SOS1 (KRASG12C/SOS binding kit, HTRF); details: Em665/620, read-out: IC50, inhibitory activity on interaction of KRAS-G12C/SOS1
Sequence of KRAS-G12C/SOS1 (Q07889 whole entry, stated change not applied): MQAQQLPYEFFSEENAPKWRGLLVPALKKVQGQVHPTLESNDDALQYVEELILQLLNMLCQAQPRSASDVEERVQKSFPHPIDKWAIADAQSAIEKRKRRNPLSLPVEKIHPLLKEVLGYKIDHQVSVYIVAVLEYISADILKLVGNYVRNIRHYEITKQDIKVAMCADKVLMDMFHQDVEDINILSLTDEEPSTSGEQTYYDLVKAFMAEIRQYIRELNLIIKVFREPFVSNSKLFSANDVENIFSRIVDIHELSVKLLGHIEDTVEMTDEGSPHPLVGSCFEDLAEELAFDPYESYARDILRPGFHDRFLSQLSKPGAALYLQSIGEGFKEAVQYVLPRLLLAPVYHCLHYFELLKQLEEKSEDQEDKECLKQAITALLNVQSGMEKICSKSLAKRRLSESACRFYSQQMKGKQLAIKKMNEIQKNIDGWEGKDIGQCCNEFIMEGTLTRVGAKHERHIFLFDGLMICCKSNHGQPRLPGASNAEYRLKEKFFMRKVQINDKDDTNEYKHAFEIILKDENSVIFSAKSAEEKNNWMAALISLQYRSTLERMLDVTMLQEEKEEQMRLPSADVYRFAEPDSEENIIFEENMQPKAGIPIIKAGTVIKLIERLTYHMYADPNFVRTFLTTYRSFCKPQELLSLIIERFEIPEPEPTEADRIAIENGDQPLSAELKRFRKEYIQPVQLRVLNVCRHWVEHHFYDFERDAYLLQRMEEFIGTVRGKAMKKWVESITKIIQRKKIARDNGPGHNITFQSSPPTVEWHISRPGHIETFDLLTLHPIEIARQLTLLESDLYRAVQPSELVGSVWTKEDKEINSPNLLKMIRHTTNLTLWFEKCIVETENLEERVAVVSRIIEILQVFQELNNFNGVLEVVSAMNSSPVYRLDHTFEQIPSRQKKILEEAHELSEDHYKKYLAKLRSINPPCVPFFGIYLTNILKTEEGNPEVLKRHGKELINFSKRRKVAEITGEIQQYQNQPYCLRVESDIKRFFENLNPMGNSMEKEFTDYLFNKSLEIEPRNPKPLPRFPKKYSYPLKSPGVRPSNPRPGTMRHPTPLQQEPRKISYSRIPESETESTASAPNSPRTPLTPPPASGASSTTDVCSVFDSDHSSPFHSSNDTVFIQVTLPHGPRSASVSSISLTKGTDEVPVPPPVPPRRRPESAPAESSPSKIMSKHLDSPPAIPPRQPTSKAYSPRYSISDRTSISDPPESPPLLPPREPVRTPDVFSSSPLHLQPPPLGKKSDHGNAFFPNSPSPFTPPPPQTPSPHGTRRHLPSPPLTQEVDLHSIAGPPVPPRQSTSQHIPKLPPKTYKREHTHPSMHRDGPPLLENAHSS
Source text: Experimental objective: The inhibitory effects of the tested compounds on KRAS-G12C/SOS1 were detected. IC50 was used to characterize the inhibitory ability of the compounds on the KRAS-G12C/SOS1. The lower IC50 value indicated the stronger inhibitory ability. BI-3406 was used as a positive control compound.
Experimental reagents: KRASG12C/SOS binding kit (Cisbio, cat. 63ADK000CB16PEG); DMSO (Sigma, cat. D8418-1L); and 384-well white plate (PerkinElmer, cat. 6007290)
• 1. Preparation of compounds: the test compounds were dissolved in 100% DMSO to obtain 10 mM stock solutions and the stock solutions were stored in a refrigerator in the dark. • 2. Kinase reaction process:
Preparation of compounds: the test compounds had the concentration of 5,000 nM and diluted in a 384-well plate into a 100% DMSO solution at the 200-fold final concentration, and the compounds were diluted 3-fold with 10 concentrations. 50 nL of the compounds at the 200-fold final concentration were transferred to the plate of interest, the 384-well plate, using a dispenser Echo 550. 50 nL of 100% DMSO was added to each negative control well and positive control well.
A Tag1-SOS1 solution at the 4-fold final concentration was prepared using a diluent buffer.
2.5 μL of the Tag1-SOS1 solution at the 4-fold final concentration was added to the 384-well plate.
A Tag2-KRAS-G12C solution at the 4-fold final concentration was prepared using the diluent buffer.
2.5 μL of the Tag2-KRAS-G12C solution at the 4-fold final concentration was respectively added into compound wells and the positive control wells; and 2.5 μL of the diluent buffer was added to the negative control wells.
The 384-well plate was centrifuged at 1,000 rpm for 30 seconds, shaken and mixed uniformly, and incubated at room temperature for 15 minutes.
An Anti-Tag1-TB3+ solution at the 1-fold final concentration and an Anti-Tag2-XL665 solution at the 1-fold final concentration were prepared using a detection buffer, the two solutions were mixed uniformly to obtain a Mix solution, and 5 μL of the Mix solution was added into each well.
The 384-well plate was centrifuged at 1,000 rpm for 30 seconds, shaken and mixed uniformly, and incubated at 4° C. for 120 minutes.
Em665/620 was read using an Envision microplate reader.
Inhibition %=(Max signal−Compound signal)/(Max signal−Min signal)×100 Calculation formula • wherein the Min signal was the mean value of the negative control wells, and the Max signal was the mean value of the positive control wells.
A dose-response curve was fitted using the log value of the concentration as an X axis and the percentage of the inhibitory rate as a Y axis by using the log(inhibitor) vs. response-variable slope of an analytical software GraphPadPrism5, thereby obtaining the IC50 value of each compound on an enzyme activity.

Structure (SMILES) | IC50 (p-ERK of PC-9 cells; Homo sapiens, PC-9, 1 h) [nM] | IC50 (KRAS-G12C/SOS1) [nM] | IC50 (p-ERK of PC-9 cells) [nM]
COc1nc(C2(O)CCC(O)CC2)cc2c(N[C@H](C)c3cccc(C(F)F)c3F)ccnc12 (single isomer, unassigned) [Compound B-178-P2] |  | ≤ 100 | ≤ 300
C[C@@H](Nc1ccnc2cnc(C3(O)CCN(C(=O)[C@H]4C[C@H](O)CN4)CC3)cc12)c1cccc(C(F)F)c1F [Compound B-144] | > 1000 | ≤ 100 | 
C[C@@H](Nc1ccnc2cnc(C3(O)CCOCC3)cc12)c1cccc(C(F)F)c1F [Compound B-103] | 300 to 1000 | ≤ 100 | 
C[C@@H](Nc1ccnc2cnc(C3(O)CCN(C(=O)C4COC4)CC3)cc12)c1cccc(C(F)F)c1F [Compound B-132] | ≤ 300 | ≤ 100 | 
C[C@@H](Nc1ccnc2cnc(C3(O)CCN(C(=O)[C@H]4CNCCO4)CC3)cc12)c1cccc(C(F)F)c1F [Compound B-136] | > 1000 | ≤ 100 | 
C[C@@H](Nc1ccnc2cnc(C3(O)CCN(C(=O)CN4CCOCC4)CC3)cc12)c1cccc(C(F)F)c1F [Compound B-148] | ≤ 300 | ≤ 100 | 
CC(=O)N1C2CCC1CC(c1cc3c(N[C@H](C)c4cccc(C(F)F)c4F)ccnc3c(C)n1)C2 (stereo partly drawn) [Compound B-67] | 300 to 1000 | ≤ 100 | 
C[C@H](O)C(=O)N1CCC(O)(c2cc3c(N[C@H](C)c4cccc(C(C)(F)F)c4F)ccnc3cn2)CC1 [Compound B-125] | ≤ 300 | ≤ 100 | 
C[C@@H](Nc1ccnc2cnc(C3(O)CCN(C(=O)CN4CCC(O)CC4)CC3)cc12)c1cccc(C(F)F)c1F [Compound B-149] | > 1000 | ≤ 100 | 
C[C@@H](Nc1ccnc2cnc(C3(O)CCN(C(=O)N4CC[C@H](O)C4)CC3)cc12)c1cccc(C(F)F)c1F [Compound B-161] | 300 to 1000 | ≤ 100 | 
Cc1nc(C2(O)CCN(C(=O)CO)CC2)cc2c(N[C@H](C)c3cccc(C(F)F)c3F)ccnc12 [Compound B-175] | ≤ 300 | ≤ 100 | 
COC1(c2cc3c(N[C@H](C)c4cccc(C(F)F)c4F)ccnc3cn2)CCC(O)CC1 (stereo partly drawn) [Compound B-82] | ≤ 300 | ≤ 100 | 
COc1c(N2CCN(C(C)=O)CC2)cc2c(N[C@H](C)c3cccc(C(F)F)c3F)ccnc2c1F [Compound A-102] | ≤ 300 | ≤ 100 | 
C[C@@H](Nc1ccnc2cnc(N3CCNCC3)cc12)c1cccc(C(F)F)c1F [Compound B-22] | 300 to 1000 | ≤ 100 | 
CC(=O)N1CCC(O)(c2cc3c(N[C@H](C)c4cccc(C(F)F)c4F)ccnc3c(-c3cnn(C)c3)n2)CC1 [Compound B-170] | ≤ 300 | ≤ 100 | 
CC(=O)N1CCC(c2cc3c(N[C@H](C)c4cccc(C(F)F)c4F)ccnc3cn2)C1 (stereo partly drawn) [Compound B-110] | ≤ 300 | ≤ 100 | 
C[C@@H](Nc1ccnc2cnc(N3CCN(C(=O)C4CCOCC4)CC3)cc12)c1cccc(C(F)F)c1F [Compound B-27] | ≤ 300 |  | 
C[C@@H](Nc1ccnc2cnc(C3(O)CCN(C(=O)C[C@@H]4CNCCO4)CC3)cc12)c1cccc(C(F)F)c1F [Compound B-142] | > 1000 |  | 
C[C@@H](Nc1ccnc2cnc(N3CCN(C(=O)C4CC4)CC3)cc12)c1cccc(C(F)F)c1F [Compound B-25] | ≤ 300 |  | 
C[C@@H](Nc1ccnc2cnc(N3CCN(C(=O)C4COC4)CC3)cc12)c1cccc(C(F)F)c1F [Compound B-26] | ≤ 300 |  | 
C[C@@H](Nc1ccnc2cnc(N3CCn4nccc4C3)cc12)c1cccc(C(F)F)c1F [Compound B-28] | 300 to 1000 |  | 
C[C@@H](O)C(=O)N1CCC(O)(c2cc3c(N[C@H](C)c4cccc(C(F)F)c4F)ccnc3cn2)CC1 [Compound B-120] | ≤ 300 |  | 

Other lines, results leading:

IC50 (p-ERK of PC-9 cells; Homo sapiens, PC-9, 1 h) [nM] | IC50 (KRAS-G12C/SOS1) [nM] | IC50 (p-ERK of PC-9 cells) [nM] | Structure (SMILES)
≤ 300 | ≤ 100 |  | CC(=O)N1CCN(c2cc3c(N[C@H](C)c4cccc(C(F)F)c4F)ccnc3cn2)[C@@H](CO)C1 [Compound B-45]
≤ 300 | ≤ 100 |  | C[C@@H](Nc1ccnc2cnc(C3(O)CCN(C(=O)c4ccncc4)CC3)cc12)c1cccc(C(F)F)c1F [Compound B-131]
≤ 300 | ≤ 100 |  | C[C@@H](Nc1ccnc2cnc(-c3ccc(=O)n(C)c3)cc12)c1cccc(C(F)F)c1F [Compound B-107]
≤ 300 | ≤ 100 |  | COc1nc(N2CCN(C(C)=O)CC2)cc2c(N[C@H](C)c3cccc(C(F)F)c3F)ccnc12 [Compound B-73]
≤ 300 | ≤ 100 |  | C[C@@H](Nc1ccnc2cnc(N3CCN(C)C(=O)C3)cc12)c1cccc(C(F)F)c1F [Compound B-41]
≤ 300 | ≤ 100 |  | C[C@@H](Nc1ccnc2cnc(N3CCCCS3(=O)=O)cc12)c1cccc(C(F)F)c1F [Compound B-60]
≤ 300 | ≤ 100 |  | C[C@@H](Nc1ccnc2cnc(N3C[C@H](O)C[C@H]3CO)cc12)c1cccc(C(F)F)c1F [Compound B-78]
≤ 300 | ≤ 100 |  | C[C@@H](Nc1ccnc2cnc(-c3ccn(C)c(=O)c3)cc12)c1cccc(C(F)F)c1F [Compound B-108]
≤ 300 | ≤ 100 |  | C[C@@H](Nc1ccnc2cnc(C3(O)CCN(C(=O)CO)CC3)cc12)c1cccc(C(F)(F)F)c1F [Compound B-118]
≤ 300 | ≤ 100 |  | C[C@@H](Nc1ccnc2cnc(C3(O)CCN(c4ncc(C#N)cn4)CC3)cc12)c1cccc(C(F)F)c1F [Compound B-156]
≤ 300 | ≤ 100 |  | C[C@@H](Nc1ccnc2cnc(N3CCC(O)(CO)CC3)cc12)c1cccc(C(F)F)c1F [Compound B-74]
